Assay results as given in PubChem BioAssay (NCI).
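1) Cells in 96-well plates. 2) Compound, 48 h, 5 concentrations. 3) Linear interpolation between surrounding doses. 4) Unreached endpoint = highest concentration. The concentration for 50% growth inhibition is given as GI50. TGI denotes the concentration required for complete inhibition of growth.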

Columns and labels:
Assay in all cases: DTP human tumour cell line panel, 48 h
MOLT-4 leukemia = test system: MOLT-4 leukemia
K-562 leukemia = test system: K-562 leukemia
SF-295 CNS = test system: SF-295 CNS
SK-MEL-2 melanoma = test system: SK-MEL-2 melanoma
OVCAR-4 ovarian = test system: OVCAR-4 ovarian
SF-268 CNS = test system: SF-268 CNS
HCT-15 colon = test system: HCT-15 colon
ACHN renal = test system: ACHN renal
NCI-H522 lung = test system: NCI-H522 lung
SK-OV-3 ovarian = test system: SK-OV-3 ovarian

| SMILES | TGI (MOLT-4 leukemia) | TGI (K-562 leukemia) | TGI (SF-295 CNS) | TGI (SK-MEL-2 melanoma) | TGI (OVCAR-4 ovarian) | TGI (SF-268 CNS) | TGI (HCT-15 colon) | TGI (ACHN renal) | TGI (NCI-H522 lung) | TGI (SK-OV-3 ovarian) | GI50 (MOLT-4 leukemia) | GI50 (K-562 leukemia) | GI50 (SF-295 CNS) | GI50 (SK-MEL-2 melanoma) | GI50 (SK-OV-3 ovarian) | GI50 (OVCAR-4 ovarian) | GI50 (SF-268 CNS) | GI50 (HCT-15 colon) | GI50 (ACHN renal) | GI50 (NCI-H522 lung) |
| --- | --- | --- | --- | --- | --- | --- | --- | --- | --- | --- | --- | --- | --- | --- | --- | --- | --- | --- | --- | --- |
| CCOC(=O)C(C)(C)Oc1ccc2c(C)c(-c3ccc(Cl)cc3)c(=O)oc2c1 | > 100 µM | > 100 µM | > 100 µM | > 100 µM | > 100 µM | > 100 µM | > 100 µM | > 100 µM |  |  |  |  |  |  |  |  |  |  |  |  |
| O=C1CC(C[C@H](O)C2CCCCC2O)CC(=O)N1Cc1ccccc1 (some centres undefined) | > 100 µM | > 100 µM | > 100 µM | > 100 µM | > 100 µM | > 100 µM |  | > 100 µM | > 100 µM | > 100 µM |  |  |  |  |  |  |  |  |  |  |
| O=c1cc2oc3cc(O)c(O)cc3c(-c3ccccc3O)c-2cc1O | > 100 µM | > 100 µM | 61.3 µM | > 100 µM | > 100 µM | > 100 µM | > 100 µM | > 100 µM |  | > 100 µM | 14.9 µM | 5.76 µM | 19.6 µM | 36.8 µM | 7.65 µM | 11.5 µM | 5.53 µM | 38.3 µM | 4.13 µM |  |
| O=C1[C@@H]2C3c4ccccc4C([C@@H]2C(=O)N1c1ccccc1)S3(=O)=O | > 100 µM | > 100 µM | > 100 µM | > 100 µM |  | > 100 µM | > 100 µM | > 100 µM | > 100 µM | > 100 µM |  |  |  |  |  |  |  |  |  |  |
| C=CC(=O)N1CCC(C2CCNc3c(C(N)=O)c(-c4ccc(Oc5ccccc5)cc4)nn32)CC1 (centres undefined) | 31 µM |  | 70 µM | 40.4 µM | 95.4 µM | 45 µM | 46.3 µM | 23.6 µM | 22.7 µM | 5.33 µM | 5.36 µM |  | 17.9 µM | 20.3 µM | 0.572 µM | 6.25 µM | 6.98 µM | 14.9 µM | 2.32 µM | 4.93 µM |
| COC1[C@@H](OC(C)=O)[C@@H](NC(=O)C(Cl)(Cl)Cl)C(I)[C@@H](N2C(=O)c3ccccc3C2=O)[C@H]1OC (some centres undefined) | > 100 µM | > 100 µM | > 100 µM |  | > 100 µM | > 100 µM | > 100 µM | > 100 µM | > 100 µM |  |  |  |  |  |  |  |  |  |  |  |
| O=C(Nc1cc(Cl)ccc1Cl)c1cc2cccc(Cl)c2oc1=O | > 100 µM | > 100 µM | > 100 µM |  |  |  | > 100 µM | > 100 µM | > 100 µM | > 100 µM |  |  |  |  |  |  |  |  |  |  |
| Cc1ccc(NC(=O)C2C(=O)N(c3ccc(C)c(C)c3)C(=O)C2N=N)cc1C (centres undefined) | > 100 µM |  | > 100 µM | > 100 µM | > 100 µM | > 100 µM | > 100 µM | > 100 µM | > 100 µM | > 100 µM |  |  |  |  |  |  |  |  |  |  |
| CCCCCCC[CH2][Sn]1([CH2]CCCCCCC)[O]C(=O)c2cccnc2[S]1 | > 100 µM | > 100 µM | > 100 µM | > 100 µM | > 100 µM |  | > 100 µM | > 100 µM | > 100 µM | > 100 µM | > 100 µM | > 100 µM | > 100 µM | > 100 µM | > 100 µM | > 100 µM |  | > 100 µM | > 100 µM | > 100 µM |
